For test [1], the system named is ATF4 in thapsigargin stimulated CCRF-CEM cells (PERK). Kind of test: CCRF-CEM thapsigargin (TG) ATF4 ELISA. It counts as cell-based. Particulars: Homo sapiens, 1 μM thapsigargin. The method, then: CCRF-CEM leukemia cells (catalog #CCL-116) were obtained from the American Type Culture Collection (ATTC, Manassas, VA). Briefly, cells were grown in RPMI-1640 medium supplemented with 10% heat-inactivated fetal bovine serum (Invitrogen, Carlsbad, CA) and 1% Penicillin/Streptomycin/L-Glutamine at 37° C., 5% CO2, and 95% humidity. Cells were expanded until reaching one million cells per mL at which time they were subcultured or harvested for assay use. One million five hundred thousand cells per well in 1 mL complete growth medium were dispensed into 12-well plates and incubated overnight. A serial dilution of test compound was added and cells were incubated at 37° C., 5% CO2, and 95% for three hours, then 1 μM thapsigargin was added and cells were incubated for an additional hour at 37° C., 5% CO2, and 95%. Cells were lysed then ATF4 levels were measured using an ELISA assay (Proteintech, Rosemont, IL). Absorbance was measured at 450 nm and 544 nM using a Synergy2 or equivalent reader (Biotek, Winooski VT). Data was analyzed using PRISM software (Graphpad, San Diego, CA) to calculate IC50 values.
In general terms: In an ELISA, binding on a coated surface is turned into a signal by an enzyme label.

The next test has as its system CCRF-CEM leukemia cells. Kind of test: CCRF-CEM ASNase cell proliferation assay. It counts as cell-based. Conditions: Homo sapiens, 1 mU/mL ASNase, 72 h. The method, then: CCRF-CEM leukemia cells (catalog #CCL-116) were obtained from the American Type Culture Collect (ATTC, Manassas, VA). Cells were grown in RPMI-1640 medium supplemented with 10% heat-inactivated fetal bovine serum (Invitrogen, Carlsbad, CA) and 1% Penicillin/Streptomycin/L-Glutamine at 37° C., 5% CO2, and 95% humidity. Cells were expanded until reaching one million cells per mL at which time they are subcultured or harvested for assay use. Ten thousand cells per well in 200 μL RPMI-1640 supplemented with 10% heat-inactivated fetal bovine serum and 1% Penicillin/Streptomycin were dispensed into a 96-well black clear bottom plate. A serial dilution of test compound and 1 mU/mL ASNase was added in triplicate and plates were incubated for 72 h at 37° C., 5% CO2, and 95% humidity. At the end of the incubation, 40 μL of a […] solution of resazurin (Sigma, St. Louis, MO) in PBS was added to each well of the plate and plates were incubated for an additional 6 h at 37° C., 5% CO2, and 95% humidity. Plates were read on a Synergy2 or equivalent reader (Biotek, Winooski VT) using an excitation of 540 nm and an emission of 600 nm. Data was analyzed using GraphPad Prism software (GraphPad, San Diego, CA) to calculate IC50 values.

The target in the next test is PERK enzyme (Homo sapiens (Human), UniProt Q9NZJ5). Kind of test: Biochemical assay for PERK (coupled pyruvate kinase/lactate dehydrogenase). Particulars: 1 mM ATP. Here is the method: Activity of PERK kinase was determined spectroscopically using a coupled pyruvate kinase/lactate dehydrogenase assay that continuously monitors the ATP hydrolysis-dependent oxidation of NADH (e.g., Schindler et al. Science (2000) 289: 1938-1942). Assays were conducted in 384-well plates ([…] final volume) using 10 nM PERK (from Beryllium), 0.25 mg/mL Myelin Basic Protein substrate, 1.5 units pyruvate kinase, 2.1 units lactate dehydrogenase, 1 mM phosphoenol pyruvate, 0.28 mM NADH and 1 mM ATP in assay buffer (100 mM Tris, pH 7.5, 15 mM MgCl2, 0.5 mM DTT, 0.004% (w/v) BSA, and 0.004% Triton X-100). Inhibition of PERK was measured by adding serial diluted test compound (final assay concentration of 1% DMSO). A decrease in absorption at 340 nm was monitored continuously for 6 hours at 30° C. on a multi-mode microplate reader (BioTek). The reaction rate was calculated using the 2-3 h time frame. The reaction rate at each concentration of compound was converted to percent inhibition using controls (i.e., reaction with no test compound and reaction with a known inhibitor) and IC50 values were calculated using software routines in Prism (GraphPad software).
Sequence of PERK enzyme (Q9NZJ5 other isoform, or with tags, fused parts or gaps): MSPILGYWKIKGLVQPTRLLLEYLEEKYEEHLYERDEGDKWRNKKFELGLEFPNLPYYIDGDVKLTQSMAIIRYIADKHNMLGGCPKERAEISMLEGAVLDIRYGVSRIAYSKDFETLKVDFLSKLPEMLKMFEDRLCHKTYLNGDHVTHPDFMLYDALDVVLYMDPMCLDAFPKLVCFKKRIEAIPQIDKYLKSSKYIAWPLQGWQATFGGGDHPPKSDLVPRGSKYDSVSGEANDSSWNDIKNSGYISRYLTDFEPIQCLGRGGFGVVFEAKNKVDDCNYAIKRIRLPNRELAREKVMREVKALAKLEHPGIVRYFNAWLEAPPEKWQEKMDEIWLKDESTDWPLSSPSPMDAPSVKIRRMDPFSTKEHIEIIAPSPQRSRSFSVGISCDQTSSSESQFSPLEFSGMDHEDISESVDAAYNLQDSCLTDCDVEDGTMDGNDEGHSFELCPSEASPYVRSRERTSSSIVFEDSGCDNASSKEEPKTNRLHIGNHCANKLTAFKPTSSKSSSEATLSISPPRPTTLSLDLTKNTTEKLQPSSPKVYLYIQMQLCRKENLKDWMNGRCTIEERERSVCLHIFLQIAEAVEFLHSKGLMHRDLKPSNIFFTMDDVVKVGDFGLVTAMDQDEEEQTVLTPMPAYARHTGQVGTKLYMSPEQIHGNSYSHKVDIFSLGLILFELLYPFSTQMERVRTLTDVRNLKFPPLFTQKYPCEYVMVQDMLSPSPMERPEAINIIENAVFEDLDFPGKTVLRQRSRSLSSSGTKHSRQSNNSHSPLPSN

For the next test, the target named is GCN2 kinase (Homo sapiens (Human), UniProt Q9P2K8). Kind of test: Biochemical assay for GCN2 (TR-FRET kinase activity). Conditions: 1 mM ATP. Here is the method: Activity of GCN2 kinase was determined using a TR-FRET kinase activity assay (e.g. Riddle et al. Analytical Biochemistry (2006) 356(1) 108-116). Assays were conducted in 384-well plates (13 μL assay volume) using 2 nM GCN2 (Carna Biosciences), 130 nM GFP-EIf2α (Invitrogen), 0.2 mg/mL E. coli tRNA (sigma) and 1 mM ATP in kinase buffer (Invitrogen). Inhibition of GCN2 was measured by adding serial diluted test compound (final assay concentration of 0.5% DMSO) followed by a 3-hour incubation. Tb-peIF2α (pSer52) antibody (Invitrogen) (2 nM final assay concentration) in kinase buffer containing EDTA (final assay concentration of 20 mM) was added. After a 60 min incubation at room temperature, TR-FRET was monitored using an excitation wavelength of 340 nm and emission wavelengths of 490 nm and 520 nm. The emission ratio (520/490) at each compound concentration of was converted to percent inhibition using controls (i.e., reaction with no test compound and reaction with a known inhibitor) and IC50 values were calculated by fitting a four-parameter sigmoidal curve to the data using Prism (GraphPad software).
Sequence of GCN2 kinase (Q9P2K8 whole entry): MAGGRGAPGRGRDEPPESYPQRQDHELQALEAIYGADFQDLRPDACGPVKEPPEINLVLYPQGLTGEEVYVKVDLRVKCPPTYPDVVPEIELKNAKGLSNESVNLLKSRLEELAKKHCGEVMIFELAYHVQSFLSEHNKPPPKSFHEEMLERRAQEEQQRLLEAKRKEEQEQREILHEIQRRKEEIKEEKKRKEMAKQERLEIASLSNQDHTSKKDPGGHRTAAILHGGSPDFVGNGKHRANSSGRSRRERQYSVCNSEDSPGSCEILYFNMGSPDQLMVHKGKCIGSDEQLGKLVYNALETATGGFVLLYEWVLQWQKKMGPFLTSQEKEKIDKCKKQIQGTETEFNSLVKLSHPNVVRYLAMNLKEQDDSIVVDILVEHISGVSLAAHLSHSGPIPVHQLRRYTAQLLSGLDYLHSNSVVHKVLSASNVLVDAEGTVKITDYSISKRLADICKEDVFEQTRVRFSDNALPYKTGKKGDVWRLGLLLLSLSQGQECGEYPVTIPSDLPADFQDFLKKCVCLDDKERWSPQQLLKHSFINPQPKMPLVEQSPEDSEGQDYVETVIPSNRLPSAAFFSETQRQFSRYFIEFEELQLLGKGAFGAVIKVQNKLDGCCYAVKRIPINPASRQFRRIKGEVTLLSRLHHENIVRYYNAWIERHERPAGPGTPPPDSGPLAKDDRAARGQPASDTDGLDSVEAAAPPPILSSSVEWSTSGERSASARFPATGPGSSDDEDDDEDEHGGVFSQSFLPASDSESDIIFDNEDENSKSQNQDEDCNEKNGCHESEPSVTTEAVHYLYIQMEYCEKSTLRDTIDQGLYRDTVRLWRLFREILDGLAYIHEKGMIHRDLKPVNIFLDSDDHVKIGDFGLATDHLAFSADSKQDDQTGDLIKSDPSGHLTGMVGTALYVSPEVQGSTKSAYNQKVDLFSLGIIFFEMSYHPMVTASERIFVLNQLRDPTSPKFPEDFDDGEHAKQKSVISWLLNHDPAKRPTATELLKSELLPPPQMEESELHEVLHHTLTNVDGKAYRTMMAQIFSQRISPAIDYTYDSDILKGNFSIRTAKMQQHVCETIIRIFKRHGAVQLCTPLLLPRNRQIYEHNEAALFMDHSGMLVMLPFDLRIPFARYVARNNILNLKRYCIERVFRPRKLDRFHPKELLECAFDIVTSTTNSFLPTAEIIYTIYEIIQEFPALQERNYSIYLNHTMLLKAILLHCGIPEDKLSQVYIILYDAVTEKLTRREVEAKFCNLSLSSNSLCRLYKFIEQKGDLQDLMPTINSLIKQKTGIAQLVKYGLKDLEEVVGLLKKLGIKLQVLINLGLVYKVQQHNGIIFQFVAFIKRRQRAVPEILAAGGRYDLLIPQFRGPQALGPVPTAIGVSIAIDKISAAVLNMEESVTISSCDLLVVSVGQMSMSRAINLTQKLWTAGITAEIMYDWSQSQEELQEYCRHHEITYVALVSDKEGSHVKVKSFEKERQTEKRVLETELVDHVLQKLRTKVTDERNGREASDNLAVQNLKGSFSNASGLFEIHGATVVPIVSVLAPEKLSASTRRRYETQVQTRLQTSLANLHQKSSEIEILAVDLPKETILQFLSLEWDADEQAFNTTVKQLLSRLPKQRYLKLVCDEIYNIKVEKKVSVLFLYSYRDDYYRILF
In general terms: TR-FRET usually uses a lanthanide donor and a delayed reading to cut background.

Test [2] relates to ATF4 in H929 multiple myeloma cells. Kind of test: H929 ATF4 ELISA assay. Particulars: four hours, relative to vehicle treated control. The format is cell-based. The method, then: H929 multiple myeloma cells (catalog #CRL-9068) were obtained from the American Type Culture Collection (ATTC, Manassas, VA). Briefly, cells were grown in RPMI-1640 medium supplemented with 20% heat-inactivated fetal bovine serum (catalog #A3840002, ThermoFisher Scientific, Waltham, MA), 1% Penicillin/Streptomycin/L-Glutamine (catalog #10378016, ThermoFisher Scientific, Waltham, MA), and 0.05 mM 2-mercaptoethanol (catalog #21985-023, ThermoFisher Scientific, Waltham, MA) at 37° C., 5% CO2, and 95% humidity. Cells were expanded until reaching one million five hundred thousand cells per mL at which time they were sub-cultured or harvested for assay use. One million five hundred thousand cells per well in 1 mL complete growth medium were dispensed into 12-well plates and incubated overnight. A serial dilution of test compound was added, and cells were incubated at 37° C., 5% CO2, and 95% for four hours. Cells were lysed then ATF4 levels were measured using an ELISA assay (Proteintech, Rosemont, IL). Absorbance is measured at 450 nm and 544 nM using a Synergy2 or equivalent reader (Biotek, Winooski VT). Data were analyzed using PRISM software (Graphpad, San Diego, CA) to calculate fold stimulation of cellular ATF4 relative to vehicle treated control.

A word on the pIC50: it is the negative decadic logarithm of the IC50, by convention in mol/L.

SMILES strings stand for the structures. pIC50: −log10 of the molar value.

As to `Cn1cc(-c2cc(NS(=O)(=O)c3cc(Cl)cc(CO)c3Cl)cc(F)c2F)c2c(N)ncnc21` [Example 7], the pIC50 was 6.30 to 7.00 in test [1], 6.00 to 6.30 in the test on CCRF-CEM leukemia cells, ≥ 7.00 against PERK enzyme and 6.30 to 7.00 against GCN2 kinase.
`COCc1cc(Cl)cc(S(=O)(=O)Nc2cccc(-c3cn(C)c4ncnc(N)c34)c2F)c1Cl` [Example 29]: the pIC50 is 6.30 to 7.00 in test [1], 5.00 to 6.00 in the test on CCRF-CEM leukemia cells, ≥ 7.00 against PERK enzyme and 6.30 to 7.00 against GCN2 kinase.
For `Cn1cc(-c2cccc(NS(=O)(=O)c3cc(Cl)cc(CO)c3Cl)c2F)c2c(N)nccc21` [Example 18], the pIC50 in test [1] was 5.00 to 6.00; with CCRF-CEM leukemia cells it was 5.00 to 6.00; against PERK enzyme, ≥ 7.00; on GCN2 kinase it was 5.00 to 6.00.
In the case of `CCC(C)(C)C(=O)OCc1cc(Cl)cc(S(=O)(=O)Nc2cccc(-c3cn(C)c4ncnc(N)c34)c2F)c1Cl` [Example 30], the pIC50 was 6.00 to 6.30 in test [1], 5.00 to 6.00 in the test on CCRF-CEM leukemia cells, 5.00 to 6.00 against PERK enzyme and 5.00 to 6.00 against GCN2 kinase.
Regarding `CC(=O)OCc1cc(Cl)cc(S(=O)(=O)Nc2cccc(-c3cn(C4COC4)c4ncnc(N)c34)c2F)c1Cl` [Example 9], the pIC50 in test [1] was ≥ 7.00; with CCRF-CEM leukemia cells, 6.30 to 7.00; against PERK enzyme, ≥ 7.00; against GCN2 kinase, 5.00 to 6.00.
As to `Nc1ncnc2c1c(-c1cccc(NS(=O)(=O)c3cc(Cl)cc(CO)c3Cl)c1F)cn2C1CCNCC1` [Example 15], the pIC50 in test [1] is 6.00 to 6.30; with CCRF-CEM leukemia cells it was 6.30 to 7.00; at PERK enzyme, ≥ 7.00; at GCN2 kinase it was ≥ 7.00.
As for `Cn1cc(-c2cccc(NS(=O)(=O)c3cc(Cl)cc(CO)c3F)c2F)c2c(N)ncnc21` [Example 22], the pIC50 is 6.30 to 7.00 in test [1], 5.00 to 6.00 in the test with CCRF-CEM leukemia cells, ≥ 7.00 on PERK enzyme and 6.30 to 7.00 against GCN2 kinase.
Consider `CC(C)(C)n1cc(-c2cccc(NS(=O)(=O)c3cc(Cl)cc(CO)c3Cl)c2F)c2c(N)ncnc21` [Example 13], for which the pIC50 in test [1] is 6.30 to 7.00; in the test with CCRF-CEM leukemia cells, 6.30 to 7.00; against PERK enzyme it was ≥ 7.00; against GCN2 kinase, 6.30 to 7.00.
`Cn1cc(-c2cc(F)cc(NS(=O)(=O)c3cc(Cl)cc(CO)c3Cl)c2)c2c(N)ncnc21` [Example 6]: the pIC50 in test [1] was 6.30 to 7.00; in the test on CCRF-CEM leukemia cells it was 6.00 to 6.30; on PERK enzyme, ≥ 7.00; on GCN2 kinase it was 6.30 to 7.00.
On to `Cn1cc(-c2cccc(NS(=O)(=O)c3cc(Cl)cc(CO)c3Br)c2F)c2c(N)ncnc21` [Example 33], for which the pIC50 (in test [1]; in the test on CCRF-CEM leukemia cells; at PERK enzyme; on GCN2 kinase) was ≥ 7.00 in each case.
For `Nc1nccc2occ(-c3cccc(NS(=O)(=O)c4cc(Cl)cc(CO)c4Cl)c3F)c12` [Example 12], the pIC50 in test [1] was 5.00 to 6.00; in the test with CCRF-CEM leukemia cells it was 5.00 to 6.00; on GCN2 kinase, 6.30 to 7.00.
As for `Cn1cc(-n2cc(-c3cccc(NS(=O)(=O)c4cc(Cl)cc(CO)c4Cl)c3F)c3c(N)ncnc32)cn1` [Example 31], the pIC50 (in test [1]; with CCRF-CEM leukemia cells; on PERK enzyme; against GCN2 kinase) was ≥ 7.00 throughout.
For `CC(=O)OCc1cc(Cl)cc(S(=O)(=O)Nc2cccc(-c3cn(C)c4ncnc(N)c34)c2F)c1Cl` [Example 1, 3-(N-(3-(4-amino-7-methyl-7H-pyrrolo[2,3-d]pyrimidin-5-yl)-2-fluorophenyl)sulfamoyl)-2,5-dichlorobenzyl acetate], the pIC50 in test [1] was 6.30 to 7.00; with CCRF-CEM leukemia cells it was 6.30 to 7.00; on PERK enzyme, ≥ 7.00; against GCN2 kinase, 5.00 to 6.00.
With `Cn1cc(-c2cccc(NS(=O)(=O)c3cc(Cl)cc(CO)c3Cl)c2Cl)c2c(N)ncnc21` [Example 20], the pIC50 is 6.30 to 7.00 in test [1], 6.30 to 7.00 with CCRF-CEM leukemia cells, ≥ 7.00 against PERK enzyme and 6.30 to 7.00 against GCN2 kinase.
In the case of `CN1CCC(n2cc(-c3cccc(NS(=O)(=O)c4cc(Cl)cc(CO)c4Cl)c3F)c3c(N)ncnc32)CC1` [Example 17], the pIC50 (in test [1]; in the test with CCRF-CEM leukemia cells) was ≥ 7.00 throughout. Besides, the “H929 NS ATF4 ELISA (ATF4 stim)” value in test [2] was “+++ (an ATF4 stim greater than 10 fold and less than or equal to 20 fold)”.
For `Nc1ncnc2c1c(-c1cccc(NS(=O)(=O)c3cc(Cl)cc(CO)c3Cl)c1F)cn2-c1cn[nH]c1` [Example 32], the pIC50 in test [1] was 6.30 to 7.00; in the test with CCRF-CEM leukemia cells, ≥ 7.00; at PERK enzyme, ≥ 7.00; against GCN2 kinase, ≥ 7.00.
Regarding `Nc1ncnc2c1c(-c1cccc(NS(=O)(=O)c3cc(Cl)cc(CO)c3Cl)c1F)cn2C1CNC1` [Example 16], the pIC50 in test [1] is 6.30 to 7.00; in the test on CCRF-CEM leukemia cells, 6.00 to 6.30; against PERK enzyme, ≥ 7.00; at GCN2 kinase, ≥ 7.00.
As to `Nc1nccc2scc(-c3cccc(NS(=O)(=O)c4cc(Cl)cc(CO)c4Cl)c3F)c12` [Example 11], the pIC50 was 5.00 to 6.00 in test [1], 6.00 to 6.30 in the test on CCRF-CEM leukemia cells and 6.30 to 7.00 against GCN2 kinase.
Take `[2H]C([2H])([2H])n1cc(-c2cccc(NS(=O)(=O)c3cc(Cl)cc(CO)c3Cl)c2F)c2c(N)ncnc21` [Example 27]: the pIC50 (in test [1]; with CCRF-CEM leukemia cells; against PERK enzyme; against GCN2 kinase) was ≥ 7.00 in each case.
For the compound `Cn1cc(-c2cccc(NS(=O)(=O)c3cc(F)cc(CO)c3Cl)c2F)c2c(N)ncnc21` [Example 19], the pIC50 in test [1] is ≥ 7.00; in the test on CCRF-CEM leukemia cells it was 6.30 to 7.00; on PERK enzyme, ≥ 7.00; at GCN2 kinase, 6.30 to 7.00.

The record behind these values is patent US20230382915A1, “GCN2 AND PERK KINASE INHIBITORS AND METHODS OF USE THEREOF” (Deciphera Pharmaceuticals, LLC, priority 2021, published 2023).
